Molecular target: T1, ΔF508-CFTR (Homo sapiens, UniProt P13569, DEL508-508)
T1 construct: Primary lung epithelial cells homozygous for the Cystic Fibrosis-causing ΔF508 mutation were differentiated; endogenous in cells; host or cells: primary human lung (bronchial) epithelial cells homozygous for ΔF508, differentiated at air-liquid interface
Experiment: hBE equivalent current (Ieq) assay
Type: cell-based
Conditions: compound at 10 uM and VX-809 at 1 uM, relative to VX-809 (1 uM); primary lung epithelial cells homozygous for ΔF508, 24 hours treatment; AUC of equivalent chloride current
Procedure: ii. hBE Equivalent Current (Ieq) Assay
Primary lung epithelial cells homozygous for the Cystic Fibrosis-causing ΔF508 mutation were differentiated for a minimum of 4 weeks in an air-liquid interface on Costar 24 well HTS filter plates prior to the equivalent current (Ieq) measurements. Cells were apically mucus-washed for 30 minutes 24 h prior to treatment with compounds. The basolateral media was removed and replaced with media containing the compound of interest diluted to its final concentration from DMSO stocks. Treated cells were incubated at 37° C. and 5% CO2 for 24 hours. At the end of the treatment period, the media was changed to the Ieq experimental solution for 30 minutes before the experiment and plates are maintained in a CO2-free incubator during this period. The plates containing the cells were then placed in pre-warmed heating blocks at 36° ° C.±0.5 for 15 minutes before measurements are taken. The transepithelial voltage (VT) and conductance (GT) were measured using a custom 24 channel current clamp (TECC-24) with 24 well electrode manifold. The Ieq assay measurements were made following additions with standardized time periods: • 1. The baseline VT and GT values were measured for approximately 20 minutes. • 2. Benzamil was added to block ENaC for 15 minutes. • 3. Forskolin plus VX-770 (ivacaftor) were added to maximally activate ΔF508-CFTR for 27 minutes. • 4. Bumetanide was added to inhibit the NaK2Cl cotransporter and shut-off secretion of chloride.
The activity data captured was the area under the curve (AUC) for the traces of the equivalent chloride current. The AUC was collected from the time of the forskolin/VX-770 addition until the inhibition by bumetanide addition. Correction in response to compound treatment was scored as the increase in the AUC for compound-treated samples over that of vehicle-treated samples.

T1 sequence (P13569 with tags, fused parts or gaps DEL508-508): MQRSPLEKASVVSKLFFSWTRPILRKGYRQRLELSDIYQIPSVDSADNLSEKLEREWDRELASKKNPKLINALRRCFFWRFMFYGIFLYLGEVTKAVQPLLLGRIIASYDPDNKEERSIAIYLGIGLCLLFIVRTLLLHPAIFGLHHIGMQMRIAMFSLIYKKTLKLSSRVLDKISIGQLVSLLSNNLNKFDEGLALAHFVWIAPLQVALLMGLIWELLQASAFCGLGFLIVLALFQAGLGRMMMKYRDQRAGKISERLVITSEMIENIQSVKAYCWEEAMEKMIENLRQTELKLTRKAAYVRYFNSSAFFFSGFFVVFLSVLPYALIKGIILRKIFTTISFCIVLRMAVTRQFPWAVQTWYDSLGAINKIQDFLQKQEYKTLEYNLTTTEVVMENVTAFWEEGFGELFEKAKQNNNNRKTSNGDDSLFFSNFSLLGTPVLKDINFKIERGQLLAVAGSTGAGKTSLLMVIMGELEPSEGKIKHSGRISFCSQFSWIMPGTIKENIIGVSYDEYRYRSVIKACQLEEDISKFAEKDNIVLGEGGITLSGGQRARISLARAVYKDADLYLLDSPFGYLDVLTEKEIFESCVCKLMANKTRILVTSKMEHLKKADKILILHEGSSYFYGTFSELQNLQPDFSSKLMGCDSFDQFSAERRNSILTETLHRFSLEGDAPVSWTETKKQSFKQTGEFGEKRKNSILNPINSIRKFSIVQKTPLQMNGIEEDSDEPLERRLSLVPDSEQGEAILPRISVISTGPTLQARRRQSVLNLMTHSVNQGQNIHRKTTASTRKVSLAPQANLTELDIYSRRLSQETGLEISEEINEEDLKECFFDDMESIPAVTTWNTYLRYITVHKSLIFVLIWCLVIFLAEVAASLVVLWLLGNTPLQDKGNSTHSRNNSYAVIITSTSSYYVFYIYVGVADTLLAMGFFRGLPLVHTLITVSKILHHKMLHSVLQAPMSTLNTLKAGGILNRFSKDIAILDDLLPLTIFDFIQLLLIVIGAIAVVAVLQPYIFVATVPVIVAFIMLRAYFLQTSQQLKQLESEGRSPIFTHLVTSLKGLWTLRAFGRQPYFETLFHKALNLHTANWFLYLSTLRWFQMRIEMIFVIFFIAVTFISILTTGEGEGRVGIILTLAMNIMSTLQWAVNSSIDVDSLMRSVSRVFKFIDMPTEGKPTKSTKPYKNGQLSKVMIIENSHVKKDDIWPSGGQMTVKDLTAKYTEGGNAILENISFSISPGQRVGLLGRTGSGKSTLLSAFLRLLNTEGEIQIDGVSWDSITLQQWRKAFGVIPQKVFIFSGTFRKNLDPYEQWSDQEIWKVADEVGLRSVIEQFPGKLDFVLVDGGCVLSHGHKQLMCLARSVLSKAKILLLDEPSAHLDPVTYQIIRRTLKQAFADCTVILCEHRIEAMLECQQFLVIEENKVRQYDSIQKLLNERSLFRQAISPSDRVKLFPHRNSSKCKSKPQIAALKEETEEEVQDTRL

SMILES	Ieq (% VX-809)
O=C(N[C@H]1C[C@H](c2nnc(C3CCC3)o2)C1)c1cc(-c2ccccc2)on1	** (activity ≥200% of VX-809 (1 uM) with compound at 10 uM and VX-809 at 1 uM)
C[C@@H](O)c1nnc(C2CCCC(NC(=O)c3cc(-c4ccccc4)on3)C2)o1 (some centres unmarked)	* (activity 100-200% of VX-809 (1 uM) with compound at 10 uM and VX-809 at 1 uM)
C[C@@H](O)c1nnc([C@H]2C[C@@H](NC(=O)c3cc(-c4ccc(O)c(O)c4)on3)C2)o1	* (activity 100-200% of VX-809 (1 uM) with compound at 10 uM and VX-809 at 1 uM)
C[C@H](O)c1nnc(C[C@H]2C[C@@H](NC(=O)c3cc(-c4ccccc4)on3)C2)s1	** (activity ≥200% of VX-809 (1 uM) with compound at 10 uM and VX-809 at 1 uM)
O=C(NC1CCCC(n2cc(CO)nn2)C1)c1cc(-c2ccccc2)on1 (centres unmarked)	* (activity 100-200% of VX-809 (1 uM) with compound at 10 uM and VX-809 at 1 uM)
CC(=O)O[C@H](C)c1nnc([C@H]2C[C@H](NC(=O)c3cc(-c4ccccc4)on3)C2)o1	** (activity ≥200% of VX-809 (1 uM) with compound at 10 uM and VX-809 at 1 uM)
O=C(N[C@H]1CC[C@@H](c2nnc(CO)o2)CC1)c1cc(-c2ccccc2)on1	* (activity 100-200% of VX-809 (1 uM) with compound at 10 uM and VX-809 at 1 uM)
C[C@H](O)c1cnn([C@H]2C[C@H](NC(=O)c3cc(-c4ccccc4)on3)C2)c1	** (activity ≥200% of VX-809 (1 uM) with compound at 10 uM and VX-809 at 1 uM)
C[C@H](O)c1nnc(C[C@H]2C[C@H](NC(=O)c3cc(-c4ccccc4)on3)C2)o1	** (activity ≥200% of VX-809 (1 uM) with compound at 10 uM and VX-809 at 1 uM)
O=C(NC1CC(n2cc(CO)cn2)C1)c1cc(-c2ccccc2)on1 (centres unmarked)	** (activity ≥200% of VX-809 (1 uM) with compound at 10 uM and VX-809 at 1 uM)
CS(=O)(=O)NC[C@H]1C[C@@H](NC(=O)c2cc(-c3ccccc3)on2)C1	* (activity 100-200% of VX-809 (1 uM) with compound at 10 uM and VX-809 at 1 uM)
O=C(N[C@H]1C[C@H](n2ccc(CO)n2)C1)c1cc(-c2ccccc2)on1	** (activity ≥200% of VX-809 (1 uM) with compound at 10 uM and VX-809 at 1 uM)
C[C@@H](O)c1nnc(C[C@H]2C[C@@H](NC(=O)c3cc(-c4ccccc4)on3)C2)o1	** (activity ≥200% of VX-809 (1 uM) with compound at 10 uM and VX-809 at 1 uM)
C[C@H](O)c1noc([C@H]2C[C@@H](NC(=O)c3cc(-c4ccccc4)on3)C2)n1	* (activity 100-200% of VX-809 (1 uM) with compound at 10 uM and VX-809 at 1 uM)
C[C@@H](O)c1nnc(C[C@H]2C[C@@H](NC(=O)c3cc(-c4ccccc4)on3)C2)s1	** (activity ≥200% of VX-809 (1 uM) with compound at 10 uM and VX-809 at 1 uM)
C[C@@H](OC(=O)c1ccccc1)c1nnc([C@H]2C[C@H](NC(=O)c3cc(-c4ccccc4)on3)C2)o1	* (activity 100-200% of VX-809 (1 uM) with compound at 10 uM and VX-809 at 1 uM)
C[C@@H](O)c1nnc([C@H]2C[C@@H](NC(=O)c3cc(-c4cccc(O)c4)on3)C2)o1	* (activity 100-200% of VX-809 (1 uM) with compound at 10 uM and VX-809 at 1 uM)
C[C@H](O)c1cn([C@H]2C[C@H](NC(=O)c3cc(-c4ccccc4)on3)C2)nn1	** (activity ≥200% of VX-809 (1 uM) with compound at 10 uM and VX-809 at 1 uM)
O=C(N[C@H]1C[C@@H](c2nnc([C@@H](O)CO)s2)C1)c1cc(-c2ccccc2)on1	** (activity ≥200% of VX-809 (1 uM) with compound at 10 uM and VX-809 at 1 uM)
C[C@@H](O)c1cnn([C@H]2C[C@H](NC(=O)c3cc(-c4ccccc4)on3)C2)c1	** (activity ≥200% of VX-809 (1 uM) with compound at 10 uM and VX-809 at 1 uM)
O=C(N[C@H]1C[C@@H](c2nc(CO)no2)C1)c1cc(-c2ccccc2)on1	** (activity ≥200% of VX-809 (1 uM) with compound at 10 uM and VX-809 at 1 uM)

SMILES	Ieq (% VX-809)
C[C@@H](O)c1nnc([C@H]2C[C@@H](NC(=O)c3cc(-c4ccc(O)cc4)on3)C2)o1	* (activity 100-200% of VX-809 (1 uM) with compound at 10 uM and VX-809 at 1 uM)
O=C(N[C@H]1C[C@@H](CCO)C1)c1cc(-c2ccccc2)on1	** (activity ≥200% of VX-809 (1 uM) with compound at 10 uM and VX-809 at 1 uM)
O=C(N[C@H]1C[C@H](n2cc(CO)cn2)C1)c1cc(-c2ccccc2)on1	* (activity 100-200% of VX-809 (1 uM) with compound at 10 uM and VX-809 at 1 uM)
C[C@@H](O)c1nnc(C2CC(NC(=O)c3cc(-c4ccccc4F)on3)C2)o1 (some centres unmarked)	* (activity 100-200% of VX-809 (1 uM) with compound at 10 uM and VX-809 at 1 uM)
O=C(N[C@H]1C[C@@H](c2nnc(CO)o2)C1)c1cc(-c2ccccc2)on1	** (activity ≥200% of VX-809 (1 uM) with compound at 10 uM and VX-809 at 1 uM)
O=C(N[C@H]1C[C@H](CCO)C1)c1cc(-c2ccccc2)on1	** (activity ≥200% of VX-809 (1 uM) with compound at 10 uM and VX-809 at 1 uM)
C[C@@H](O)c1nnc([C@H]2C[C@@H](NC(=O)c3cc(-c4ccc(F)cc4F)on3)C2)o1	* (activity 100-200% of VX-809 (1 uM) with compound at 10 uM and VX-809 at 1 uM)
C[C@H](O)c1ccn([C@H]2C[C@H](NC(=O)c3cc(-c4ccccc4)on3)C2)n1	** (activity ≥200% of VX-809 (1 uM) with compound at 10 uM and VX-809 at 1 uM)
C[C@@H](O)c1ccn([C@H]2C[C@H](NC(=O)c3cc(-c4ccccc4)on3)C2)n1	** (activity ≥200% of VX-809 (1 uM) with compound at 10 uM and VX-809 at 1 uM)
C[C@@H](O)c1noc([C@H]2C[C@@H](NC(=O)c3cc(-c4ccccc4)on3)C2)n1	* (activity 100-200% of VX-809 (1 uM) with compound at 10 uM and VX-809 at 1 uM)
O=C(NC1CC(n2ccc(CO)n2)C1)c1cc(-c2ccccc2)on1 (centres unmarked)	** (activity ≥200% of VX-809 (1 uM) with compound at 10 uM and VX-809 at 1 uM)
C[C@@H](O)c1nnc([C@H]2C[C@@H](NC(=O)c3cc(-c4ccc(F)c(F)c4)on3)C2)o1	* (activity 100-200% of VX-809 (1 uM) with compound at 10 uM and VX-809 at 1 uM)
C[C@@H](O)c1nnc([C@H]2C[C@@H](NC(=O)c3cc(-c4cccc(F)c4)on3)C2)o1	* (activity 100-200% of VX-809 (1 uM) with compound at 10 uM and VX-809 at 1 uM)
CC(C)CO[C@H](C)c1nnc([C@H]2C[C@H](NC(=O)c3cc(-c4ccccc4)on3)C2)o1	* (activity 100-200% of VX-809 (1 uM) with compound at 10 uM and VX-809 at 1 uM)
C[C@@H](O)c1nc([C@H]2C[C@@H](NC(=O)c3cc(-c4ccccc4)on3)C2)no1	* (activity 100-200% of VX-809 (1 uM) with compound at 10 uM and VX-809 at 1 uM)
C[C@H](O)c1nnc(CC2CC(NC(=O)c3cc(-c4ccccc4)on3)C2)o1 (some centres unmarked)	* (activity 100-200% of VX-809 (1 uM) with compound at 10 uM and VX-809 at 1 uM)
C[C@@H](O)c1cn([C@H]2C[C@H](NC(=O)c3cc(-c4ccccc4)on3)C2)nn1	** (activity ≥200% of VX-809 (1 uM) with compound at 10 uM and VX-809 at 1 uM)
C[C@H](O)c1nc([C@H]2C[C@@H](NC(=O)c3cc(-c4ccccc4)on3)C2)no1	* (activity 100-200% of VX-809 (1 uM) with compound at 10 uM and VX-809 at 1 uM)
C[C@@H](O)c1noc(C2CC(NC(=O)c3cc(-c4ccccc4)on3)C2)n1 (some centres unmarked)	** (activity ≥200% of VX-809 (1 uM) with compound at 10 uM and VX-809 at 1 uM)
C[C@H](O)c1noc(C2CC(NC(=O)c3cc(-c4ccccc4)on3)C2)n1 (some centres unmarked)	** (activity ≥200% of VX-809 (1 uM) with compound at 10 uM and VX-809 at 1 uM)

From patent US10738040B2, “Compounds, compositions, and methods for increasing CFTR activity” (Proteostasis Therapeutics, Inc., priority 2014, dated 2020)
